Results from US20250108049A1, “COMPOUNDS FOR TREATING MDS-ASSOCIATED ANEMIAS AND OTHER CONDITIONS” (Agios Pharmaceuticals, Inc., priority 2021, published 2025).

Columns and labels:
Polg^D257A mice [1] = assay: Whole blood Hb, RBC and reticulocyte analysis in Polg^D257A mice, second experiment (Example 3); format: in vivo, mouse
Method: (§1) To determine the impacts of mitapivat and Compound 1 under these conditions, bone marrow aspirates from diseased mice were collected and populations of erythroblasts were evaluated at various stages of maturation using flow cytometry. Hemoglobin (Hb), red blood cell (RBC) counts, and reticulocyte fractions were also monitored every 4 weeks in whole blood on a Sysmex XN-1000™ hematology analyzer to determine if disease burden and impact on erythroblast maturation could be detected in the periphery. Pharmacodynamics and pharmacokinetic analysis were also performed to confirm appropriate exposure and target engagement of the compounds (data not shown).
(§2) A second experiment was performed using the Polg^D257A model (RRID:IMSR_JAX:017341) from Example 2. In this experiment 20 mice (10 males and 10 females per group) were dosed with either mitapivat or Compound 1 in chow as described in Example 2. For the mitapivat group, the compound was dosed at 200 mg/kg/day and for the Compound 1 group, Compound 1 was dosed at 10 mg/kg/day. Treatment was started when the mice were 4 months of age and was continued for 8 months (rolling enrollment). Following 8 months of treatment (at 12 months of age), an evaluation of bone marrow aspirates was conducted by flow cytometry using well established markers of erythropoiesis following a modified procedure outlined in Suragani et al., Nat Med 2014 Apr; 20(4):408-14. Bone marrow aspirates were treated with ACK lysis buffer for 3 minutes to remove red blood cells from the sample. Remaining cells were washed and maintained in PBS+5% FBS throughout the remainder of the procedure. The flow cytometry panel included live/dead (Indol), B220 (BV421), CD5 (BV421), CD71 (AF700), and Terl19 (PE) antibodies. The gating strategy used for analysis was as follows: Live/B220-CD5-/Terl19+. Ter119+cells were then gated into populations using CD71 and FSC as outlined in the literature (Suragani et al., Nat Med 2014 Apr; 20(4):408-14; FIG. 6E). […] FIG. 6D. Flow cytometry data on the mitapivat treated Polg^D257A mice is not available as the mitapivat treatment arm is not yet completed.
Data not shown. After 24 weeks (6 months thus far) of treatment, mitapivat increased Hb and RBC counts by 7% in Polg^D257A mice, with no change in reticulocytes. Data not shown. After 32 weeks of treatment with Compound 1 no change in Hb, RBC count, or reticulocyte fraction was observed. Data not shown.

Polg^D257A mice [2] = assay: Bone marrow aspirate flow cytometry of erythroblast populations in Polg^D257A mice (Example 3); format: in vivo, mouse; conditions: 10 mg/kg/day in chow, 8 months of treatment
Method: as §1, §2

NHD13 mice [3] = assay: Whole blood hematology in NHD13 mice (Example 5); format: in vivo, mouse; conditions: NHD13 mice aged 4 months, in chow, 20 weeks of treatment
Method: as §1
(§3) A NUP98-HOXD13 (NHD13) transgenic MDS associated mouse model will also be used to assess the therapeutic benefit of disclosed compounds. See e.g., Lin et al., Blood 2005 Jul 1;106(1):287-95 and Suragani et al., Nat Med 2014 Apr;20(4):408-14. Male and female NHD13 mice aged to 4 or 10 months will be administered a disclosed compound in chow, ad libitum (e.g., mitapivat or Compound 1) daily. A full blood panel and erythroid precursor analysis will be conducted after 2 months of treatment, and results will be analyzed.
Using Example 4, 20 NHD13 mice (10 males and 10 females per group; RRID:IMSR_JAX:010505) aged 4 months were randomized into treatment groups using matched distribution of hemoglobin levels. Mice were dosed with either mitapivat or Compound 1 for 20 weeks in the same manner (in chow, ad libitum) as Example 3. After 20 weeks of treatment with either mitapivat or Compound 1, bone marrow aspirates of the NHD13 mice were collected as described above and analyzed by flow cytometry. […] In addition, a significant decline in survival of vehicle control NHD13 mice as previously reported (Lin et al., […] 2005 July;106(1)) was not observed. […] This mild state of disease was also supported in whole blood analysis. […] Data not shown.

NHD13 mice [4] = assay: Bone marrow aspirate flow cytometry of erythroblast populations in NHD13 mice (Example 5); format: in vivo, mouse; conditions: NHD13 mice aged 4 months, in chow, 20 weeks of treatment; mild disease in model
Method: as §1
as §3, with “Male and female NHD13 mice aged to 4 or 10 months will be administered a disclosed compound in chow, ad libitum (e.g., mitapivat or Compound 1) daily.” left out
Using Example 4, 20 NHD13 mice (10 males and 10 females per group; RRID:IMSR_JAX:010505) aged 4 months were randomized into treatment groups using matched distribution of hemoglobin levels. […] After 20 weeks of treatment with either mitapivat or Compound 1, bone marrow aspirates of the NHD13 mice were collected as described above and analyzed by flow cytometry. […]

Polg^D257A mice [5] = assay: Mitapivat in Polg^D257A MDS-associated anemia mouse model, whole blood hematology (Example 2); format: in vivo; conditions: 200 mg/kg/day in chow
Method: as §1
Mitochondrial disruption has been linked to the development of anemia in MDS patients (see, e.g., Chen et al. Blood. 2009; 114(19):4045-53). Mitochondria play a key role in regulation of apoptosis, which is a mechanism highlighted in defunct hematopoiesis of MDS (Green et al., Science 1998; 281(5381):1309-1312, Kerbauy et al., Exp Hematol. 2007; 35(11): 1739-1746; Ahlqvist et al. Nature Communications. 2015; 6:6494). B6.12957(Cg)-Polg^tm1prol/J, or Polg^D257A, is a mouse model with a mutation in the N-terminus of the DNA polymerase γ gene that results in impaired proofreading activity in the mitochondria, leading to increased mtDNA mutagenesis (Jackson Laboratory #017341). See, Chen et al. Blood. 2009; 114(19):4045-53 and Ahlqvist et al. Nature Communications. 2015; 6:6494. […] Here, we used the Polg^D257A mouse model to evaluate the therapeutic benefit of a PK activator, mitapivat, in this mechanism of anemia.
Male and female Polg^D257A mice were administered 200 mg/kg/day mitapivat in chow, ad libitum, for 18 weeks starting at 7.5 months of age, once anemic phenotype was established by hematology analysis. Whole blood was collected via tail vein into EDTA tubes and analyzed using a Sysmex XN-2000™ hematology system according to manufacturer protocol. Hemoglobin, red blood cells (RBCs), and reticulocytes were monitored every 2-4 weeks to track disease progression and severity. After 18 weeks of mitapivat treatment, RBC counts were elevated by 45% and hemoglobin levels were increased by 2.4 g/dL in mitapivat treated mice compared to untreated mutants.
See FIGS. 1A-D and FIGS. 2A-D (C57BL/6J mice were used as controls). […] Commensurate with increased hemoglobin was a marked decrease (about 30%) in reticulocyte count.

[6] = 10 mg/kg/day in chow, after 32 weeks of treatment
[7] = 200 mg/kg/day in chow, after 24 weeks of treatment
[8] = male and female Polg^D257A mice, after 18 weeks

Cn1c2nc(Cc3cc[nH]n3)sc2c2cnn(Cc3cccc(N)n3)c(=O)c21 [Compound 1, 2-((1H-pyrazol-3-yl)methyl)-6-((6-aminopyridin-2-yl)methyl)-4-methyl-4H-thiazolo[5′,4′:4,5]pyrrolo[2,3-d]pyridazin-5(6H)-one]
change in Hb (Polg^D257A mice [1]; [6]): no change
change in RBC count (Polg^D257A mice [1]; [6]): no change
change in reticulocyte fraction (Polg^D257A mice [1]; [6]): no change
late basophilic and polychromatic erythroblasts (EryB) in bone marrow (Polg^D257A mice [2]): increase
orthochromatic and reticulocytes (EryC) in bone marrow (Polg^D257A mice [2]): increase
ProE (proerythrocyte) population in bone marrow (Polg^D257A mice [2]; compared to vehicle control Polg^D257A mice): no additional impact
basophilic erythroblasts (EryA) in bone marrow (Polg^D257A mice [2]; vs vehicle control Polg^D257A mice): reduction
reduction in reticulocyte count (NHD13 mice [3]): 25%
reduction in reticulocyte fraction (FIG. 8C) (NHD13 mice [3]): 20%
response in Hb compared to vehicle controls (FIG. 8A) (NHD13 mice [3]): minimal response
response in RBC count compared to vehicle controls (FIG. 8B) (NHD13 mice [3]): minimal response
therapeutic benefit in bone marrow flow cytometry data (erythroblast populations) (NHD13 mice [4]): difficult to detect any therapeutic benefit

O=C(c1ccc(NS(=O)(=O)c2cccc3cccnc23)cc1)N1CCN(CC2CC2)CC1 [mitapivat, N-(4-(4-(cyclopropylmethyl)piperazine-1-carbonyl)phenyl)quinoline-8-sulfonamide]
Hb increased (Polg^D257A mice [1]; [7]): 7%
RBC counts increased (Polg^D257A mice [1]; [7]): 7%
change in reticulocytes (Polg^D257A mice [1]; [7]): no change
decrease in reticulocyte count (FIG. 2C) (Polg^D257A mice [5]; Polg^D257A mice): about 30%
frequency of reticulocytes decreased (Polg^D257A mice [5]; Polg^D257A mice, after 18 weeks): 30%
therapeutic benefit (hemoglobin), female mutators (Polg^D257A mice [5]; female Polg^D257A mice, after 18 weeks): responded after 18 weeks
increase in hemoglobin, male mutators (Polg^D257A mice [5]; male Polg^D257A mice, starting at 6-weeks post-treatment): 1 to 2 g/dL
RBC counts elevated compared to untreated mutants (Polg^D257A mice [5]; [8]): 45%
hemoglobin levels increased compared to untreated mutants (Polg^D257A mice [5]; [8]): 2.4 g/dL
reduction in reticulocyte count (NHD13 mice [3]): 15%
reduction in reticulocyte fraction (FIG. 8C) (NHD13 mice [3]): 20%
response in Hb compared to vehicle controls (FIG. 8A) (NHD13 mice [3]): minimal response
response in RBC count compared to vehicle controls (FIG. 8B) (NHD13 mice [3]): minimal response
therapeutic benefit in bone marrow flow cytometry data (erythroblast populations) (NHD13 mice [4]): difficult to detect any therapeutic benefit
